{
  "source": "PubChem BioAssay AID2060487",
  "about": "(Molecular Pharmacology Branch, DTP, NCI, 2025)",
  "test_system": "997537-175-T-J1-PDC complex spheroid viability",
  "assay": "Anticancer human tumor 997537-175-T-J1-PDC patient-derived colon adenocarcinoma cell line growth inhibition [GQUAD]",
  "conditions": "for viability, T/C: stronger effect = lower value",
  "text": "DNA G-quadruplex Stabilizer Agents in Combinations in Complex Spheroids\nA high-throughput screen of multi-cell type tumor spheroids was designed to identify active combinations of DNA G-quadruplex stabilizer agents and targeted small molecules. Complex spheroids include a stromal component modeled by human endothelial cells (HUVEC) and fibroblasts modeled by human mesenchymal stem cells (MSCs). The concentration ranges selected for each drug and investigational agent were based upon clinically achievable concentrations if the clinical Cmax of the agent was known.\nCompounds. The drugs and investigational agents: pidnarulex (CX-5461; NSC782164), APTO-253 (NSC789042), BRACO-19 (NSC847499), peposertib (NSC802822), ceralasertib (NSC780249), elimusertib (NSC800525), camonsertib (NSC841442), AZD-1390 (NSC803789), olaparib (NSC753686), talazoparib (NSC767125), ART-558 (NSC835418), sotorasib (NSC818433), MRTX-1133 (NSC836407), SN-38 (NSC673596), topotecan (NSC609699), etoposide (NSC141540), doxorubicin (NSC123127), gemcitabine (NSC613327), 5-fluorouracil (NSC19893), paclitaxel (NSC125973), vemurafenib (NSC761431), panobinostat (NSC761190), R-306465 (JNJ-16241199; NSC773264), adavosertib (NSC754352), TP-3654 (NSC805149), carboplatin (NSC241240), KSQ-4279 (NSC840948), and staurosporine (NSC755774) were obtained from the National Cancer Institute (NCI) Developmental Therapeutics Program Chemical Repository (34). The FDA-approved anticancer drug set is available from the NCI Developmental Therapeutics Program. […] The stock solutions were prepared in dimethyl sulfoxide (DMSO, Sigma-Aldrich, St. Louis, MO, cat. D2650) at 800-fold the tested concentration and stored at -70 degrees C prior to their use. All drugs and investigational agents were tested over a range starting from a high concentration at or near the clinical Cmax and decreasing in half-log increments. If the clinical Cmax for an agent had not been determined, the highest concentration tested was 10 microM.\n2.3 Cell Culture. All cells were maintained in an incubator at 37 degrees C and 5% CO2 with 95% humidity. The PDC lines were cultured according to standard operating procedures established by the NCI PDMR. All PDCs were thawed and cultured in Matrigel-coated flasks prepared with a working solution of 1X Ham's F-12 nutrient mix, without supplementation (Invitrogen, cat. 11765054), 100 U/mL penicillin-streptomycin (Invitrogen, cat. 15140122), and 2.5% Matrigel (Corning Inc., cat. 354248) for the first three passages. The 857933-349-R-J2-PDC line was cultured in 6C/Colon 1B media, which includes advanced DMEM/F-12 (Thermo Fisher Scientific, cat. 12634028), 10 mM HEPES (Thermo Fisher Scientific, cat. 15630080), 1X GlutaMAX supplement (Thermo Fisher Scientific, cat. 35050061), 0.1 mg/mL primocin (InvivoGen, cat. ant-pm-2), 10% defined fetal bovine serum, heat inactivated (HyClone Laboratories Inc., cat. SH30070.03HI), 50% L-WRN conditioned media (ATCC, cat. CRL-3276), 1.25 mM N-Acetyl-L-cysteine (Sigma-Aldrich, cat. A9165), 10 mM nicotinamide (Sigma-Aldrich, cat. N0636), 1X B-27 supplement (Thermo Fisher Scientific, cat. 17504044), 1X N-2 supplement (Thermo Fisher Scientific, cat. 17502048), 10 microM Y-27632 dihydrochloride (Tocris Bioscience, cat. 1254), and 50 ng/mL human EGF recombinant protein (Thermo Fisher Scientific, cat. PHG0311). The 485176-168-R4-J1-PDC line was cultured in Panc media, which includes all 6C/Colon 1B media components plus 100 ng/mL human FGF-10 (Thermo Fisher Scientific, cat. 100-26), 500 nM SB-431542 (Selleckchem, cat. S1067), and gastrin (Tocris, cat. 3006).\n[…]",
  "note": "Where “and” joins values, the source holds several entries; their conditions need not be identical. Equal values may be shown once.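 Further: spheroids exposed to the agents for 7 days.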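 Wherever viability, T/C is given: 100% = DMSO vehicle control viability.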",
  "data": [
    {"smiles": "CCCS(=O)(=O)Nc1ccc(F)c(C(=O)c2c[nH]c3ncc(-c4ccc(Cl)cc4)cc23)c1F", "note": "+ CN(C)c1ccc(Nc2c3ccc(NC(=O)CCN4CCCC4)cc3nc3cc(NC(=O)CCN4CCCC4)ccc23)cc1", "values": [
      {"measurement": "IC50", "setting": "curve of first compound, second compound 0.0316 µM", "result": 2.18, "unit": "µM"},
      {"measurement": "IC50", "setting": "curve of first compound, second compound 0.1 µM", "result": 3.14, "unit": "µM"},
      {"measurement": "IC50", "setting": "curve of first compound, second compound 0.316 µM", "result": 4.1, "unit": "µM"},
      {"measurement": "IC50", "setting": "curve of first compound, second compound 1 µM", "result": 4.72, "unit": "µM"},
      {"measurement": "IC50", "setting": "curve of first compound, second compound 3.16 µM", "result": 7.03, "unit": "µM"},
      {"measurement": "IC50", "setting": "curve of first compound, second compound 10 µM", "result": 5.84, "unit": "µM"},
      {"measurement": "viability, T/C", "setting": "second compound 0.0316 µM, first compound 0.0316 µM", "result": 93.9, "unit": "%"},
      {"measurement": "viability, T/C", "setting": "second compound 0.0316 µM, first compound 0.1 µM", "result": 75.3, "unit": "%"},
      {"measurement": "viability, T/C", "setting": "second compound 0.0316 µM, first compound 0.316 µM", "result": 60.8, "unit": "%"},
      {"measurement": "viability, T/C", "setting": "second compound 0.0316 µM, first compound 1 µM", "result": 78.6, "unit": "%"},
      {"measurement": "viability, T/C", "setting": "second compound 0.0316 µM, first compound 3.16 µM", "result": 38.4, "unit": "%"},
      {"measurement": "viability, T/C", "setting": "second compound 0.0316 µM, first compound 10 µM", "result": 24.5, "unit": "%"},
      {"measurement": "viability, T/C", "setting": "second compound 0.1 µM, first compound 0.0316 µM", "result": 105, "unit": "%"},
      {"measurement": "viability, T/C", "setting": "second compound 0.1 µM, first compound 0.1 µM", "result": 73.1, "unit": "%"},
      {"measurement": "viability, T/C", "setting": "second compound 0.1 µM, first compound 0.316 µM", "result": 75.4, "unit": "%"},
      {"measurement": "viability, T/C", "setting": "second compound 0.1 µM, first compound 1 µM", "result": 70.6, "unit": "%"},
      {"measurement": "viability, T/C", "setting": "second compound 0.1 µM, first compound 3.16 µM", "result": 52.1, "unit": "%"},
      {"measurement": "viability, T/C", "setting": "second compound 0.1 µM, first compound 10 µM", "result": 32.7, "unit": "%"},
      {"measurement": "viability, T/C", "setting": "second compound 0.316 µM, first compound 0.0316 µM", "result": 71.3, "unit": "%"},
      {"measurement": "viability, T/C", "setting": "second compound 0.316 µM, first compound 0.1 µM", "result": 72.9, "unit": "%"},
      {"measurement": "viability, T/C", "setting": "second compound 0.316 µM, first compound 0.316 µM", "result": 81.3, "unit": "%"},
      {"measurement": "viability, T/C", "setting": "second compound 0.316 µM, first compound 1 µM", "result": 62.9, "unit": "%"},
      {"measurement": "viability, T/C", "setting": "second compound 0.316 µM, first compound 3.16 µM", "result": 59.4, "unit": "%"},
      {"measurement": "viability, T/C", "setting": "second compound 0.316 µM, first compound 10 µM", "result": 23.9, "unit": "%"},
      {"measurement": "viability, T/C", "setting": "second compound 1 µM, first compound 0.0316 µM", "result": 67, "unit": "%"},
      {"measurement": "viability, T/C", "setting": "second compound 1 µM, first compound 0.1 µM", "result": 55, "unit": "%"},
      {"measurement": "viability, T/C", "setting": "second compound 1 µM, first compound 0.316 µM", "result": 81.7, "unit": "%"},
      {"measurement": "viability, T/C", "setting": "second compound 1 µM, first compound 1 µM", "result": 43.3, "unit": "%"},
      {"measurement": "viability, T/C", "setting": "second compound 1 µM, first compound 3.16 µM", "result": 65.4, "unit": "%"},
      {"measurement": "viability, T/C", "setting": "second compound 1 µM, first compound 10 µM", "result": 26.9, "unit": "%"},
      {"measurement": "viability, T/C", "setting": "second compound 3.16 µM, first compound 0.0316 µM", "result": 70.3, "unit": "%"},
      {"measurement": "viability, T/C", "setting": "second compound 3.16 µM, first compound 0.1 µM", "result": 63.5, "unit": "%"},
      {"measurement": "viability, T/C", "setting": "second compound 3.16 µM, first compound 0.316 µM", "result": 85.1, "unit": "%"},
      {"measurement": "viability, T/C", "setting": "second compound 3.16 µM, first compound 1 µM", "result": 39.9, "unit": "%"},
      {"measurement": "viability, T/C", "setting": "second compound 3.16 µM, first compound 3.16 µM", "result": 78.9, "unit": "%"},
      {"measurement": "viability, T/C", "setting": "second compound 3.16 µM, first compound 10 µM", "result": 42.3, "unit": "%"},
      {"measurement": "viability, T/C", "setting": "second compound 10 µM, first compound 0.0316 µM", "result": 71.3, "unit": "%"},
      {"measurement": "viability, T/C", "setting": "second compound 10 µM, first compound 0.1 µM", "result": 62.6, "unit": "%"},
      {"measurement": "viability, T/C", "setting": "second compound 10 µM, first compound 0.316 µM", "result": 63.5, "unit": "%"},
      {"measurement": "viability, T/C", "setting": "second compound 10 µM, first compound 1 µM", "result": 56, "unit": "%"},
      {"measurement": "viability, T/C", "setting": "second compound 10 µM, first compound 3.16 µM", "result": 74.9, "unit": "%"},
      {"measurement": "viability, T/C", "setting": "second compound 10 µM, first compound 10 µM", "result": 36.4, "unit": "%"}
    ]},
    {"smiles": "C=CC(=O)N1CCN(c2nc(=O)n(-c3c(C)ccnc3C(C)C)c3nc(-c4c(O)cccc4F)c(F)cc23)C(C)C1", "note": "(centres undefined)", "values": [
      {"measurement": "viability, T/C", "setting": "compound 0.0316 µM", "result": "72.9% and 96.6% and 86.9%"},
      {"measurement": "viability, T/C", "setting": "compound 0.1 µM", "result": "72.7% and 83.5% and 95.8%"},
      {"measurement": "viability, T/C", "setting": "compound 0.316 µM", "result": "86.5% and 87.9% and 93.8%"},
      {"measurement": "viability, T/C", "setting": "compound 1 µM", "result": "92.2% and 77.4% and 73%"},
      {"measurement": "viability, T/C", "setting": "compound 3.16 µM", "result": "95.7% and 79.1% and 71.7%"},
      {"measurement": "viability, T/C", "setting": "compound 10 µM", "result": "94.6% and 94.1% and 90%"},
      {"measurement": "IC50", "setting": "curve of compound", "result": "> 10", "unit": "µM"}
    ]}
  ]
}
